Where two headings read alike, the source gives them in different places.
Legend:
Assay in all cases: biochemical
Set-up in all cases: Reaction Biology 371-kinase panel at Km ATP, per cent enzyme activity relative to DMSO, single dose in duplicate
TAOK2/TAO1 = TAOK2/TAO1 (Homo sapiens, UniProt Q9UL54); conditions: duplicate measurements, Km ATP
Outline: (§1)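 Activity of each kinase, normalised to DMSO-treated controls, served as the read-out. The inhibitor was tested at 300 nM against 371 kinases in vitro. Curves fitted by variable-slope sigmoidal dose-response, constrained to a bottom of 0, gave IC50.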

PKAcb = target: T1, PKAcb (Homo sapiens, UniProt P22694); conditions: duplicate measurements, Km ATP
T1 construct: gene PRKACB
Outline: as §1

ERK1 = target: T2, ERK1 (Homo sapiens, UniProt P27361); conditions: duplicate measurements, Km ATP
T2 construct: gene MAPK3
Outline: as §1

SIK1 = SIK1 (Homo sapiens, UniProt P57059); conditions: duplicate measurements, Km ATP
Outline: as §1

BTK = BTK (Homo sapiens, UniProt Q06187); conditions: duplicate measurements, Km ATP
Outline: as §1

CK1g1 = target: T3, CK1g1 (Homo sapiens, UniProt Q9HCP0); conditions: duplicate measurements, Km ATP
T3 construct: gene CSNK1G1
Outline: as §1

BRSK1 = BRSK1 (Homo sapiens, UniProt Q8TDC3); conditions: duplicate measurements, Km ATP
Outline: as §1

SIK3 = SIK3 (Homo sapiens, UniProt Q9Y2K2); conditions: duplicate measurements, Km ATP
Outline: as §1

PKA = target: T4, PKA (Homo sapiens, UniProt P17612); conditions: duplicate measurements, Km ATP
T4 construct: gene PRKACA
Outline: as §1

ABL2/ARG = ABL2/ARG (Homo sapiens, UniProt P42684); conditions: duplicate measurements, Km ATP
Outline: as §1

PLK4/SAK = PLK4/SAK (Homo sapiens, UniProt O00444); conditions: duplicate measurements, Km ATP
Outline: as §1

GRK1 = GRK1 (Homo sapiens, UniProt Q15835); conditions: duplicate measurements, Km ATP
Outline: as §1

FGR = FGR (Homo sapiens, UniProt P09769); conditions: duplicate measurements, Km ATP
Outline: as §1

TRKA = target: T5, TRKA (Homo sapiens, UniProt P04629); conditions: duplicate measurements, Km ATP
T5 construct: gene NTRK1
Outline: as §1

LIMK1 = LIMK1 (Homo sapiens, UniProt P53667); conditions: duplicate measurements, Km ATP; read-out: % Enzyme Activity (relative to DMSO controls) / TP-0005801 (0.3µM) / Data 1
Outline: as §1

ERN2/IRE2 = ERN2/IRE2 (Homo sapiens, UniProt Q76MJ5); conditions: duplicate measurements, Km ATP
Outline: as §1

STK39/STLK3 = STK39/STLK3 (Homo sapiens, UniProt Q9UEW8); conditions: duplicate measurements, Km ATP
Outline: as §1

SLK/STK2 = SLK/STK2 (Homo sapiens, UniProt Q9H2G2); conditions: duplicate measurements, Km ATP
Outline: as §1

DMPK2 = target: T6, DMPK2 (Homo sapiens, UniProt Q6DT37); conditions: duplicate measurements, Km ATP; read-out: % Enzyme Activity (relative to DMSO controls) / TP-0005801 (0.3µM) / Data 1
T6 construct: gene CDC42BPG
Outline: as §1

AKT2 = AKT2 (Homo sapiens, UniProt P31751); conditions: duplicate measurements, Km ATP
Outline: as §1

[1] = read-out: % Enzyme Activity (relative to DMSO controls) / TP-0005801 (0.3µM) / Data 1
[2] = read-out: % Enzyme Activity (relative to DMSO controls) / TP-0005801 (0.3µM) / Data 2

TAOK2/TAO1, sequence (Q9UL54 whole entry): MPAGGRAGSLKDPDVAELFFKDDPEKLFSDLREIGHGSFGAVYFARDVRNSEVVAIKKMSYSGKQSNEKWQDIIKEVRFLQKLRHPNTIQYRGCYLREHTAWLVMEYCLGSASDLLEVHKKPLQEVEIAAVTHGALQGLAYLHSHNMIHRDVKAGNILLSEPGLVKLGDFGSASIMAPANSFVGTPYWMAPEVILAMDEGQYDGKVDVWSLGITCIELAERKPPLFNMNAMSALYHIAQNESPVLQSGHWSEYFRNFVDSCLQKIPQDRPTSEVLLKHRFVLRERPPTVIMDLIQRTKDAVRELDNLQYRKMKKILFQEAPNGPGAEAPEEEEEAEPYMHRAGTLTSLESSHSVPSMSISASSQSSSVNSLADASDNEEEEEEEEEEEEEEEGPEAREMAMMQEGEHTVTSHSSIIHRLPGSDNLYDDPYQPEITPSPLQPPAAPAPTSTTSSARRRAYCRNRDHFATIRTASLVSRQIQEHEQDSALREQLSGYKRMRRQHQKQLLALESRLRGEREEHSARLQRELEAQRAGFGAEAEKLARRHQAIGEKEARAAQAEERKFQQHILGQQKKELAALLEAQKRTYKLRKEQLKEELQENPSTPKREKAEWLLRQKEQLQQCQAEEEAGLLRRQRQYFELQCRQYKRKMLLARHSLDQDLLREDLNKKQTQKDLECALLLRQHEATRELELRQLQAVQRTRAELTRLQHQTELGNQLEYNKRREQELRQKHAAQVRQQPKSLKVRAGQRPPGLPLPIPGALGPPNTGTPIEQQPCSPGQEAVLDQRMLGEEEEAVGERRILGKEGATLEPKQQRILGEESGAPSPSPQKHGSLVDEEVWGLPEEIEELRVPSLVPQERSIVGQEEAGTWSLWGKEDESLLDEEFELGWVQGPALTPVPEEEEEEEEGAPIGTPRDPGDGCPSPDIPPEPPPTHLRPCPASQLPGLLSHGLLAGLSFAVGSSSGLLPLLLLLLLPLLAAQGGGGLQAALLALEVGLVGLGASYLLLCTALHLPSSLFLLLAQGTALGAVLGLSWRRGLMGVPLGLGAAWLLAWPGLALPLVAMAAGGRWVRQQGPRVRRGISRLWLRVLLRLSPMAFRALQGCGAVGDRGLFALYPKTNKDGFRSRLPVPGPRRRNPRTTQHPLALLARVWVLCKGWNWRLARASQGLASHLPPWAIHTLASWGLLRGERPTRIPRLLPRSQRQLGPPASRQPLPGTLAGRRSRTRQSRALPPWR
BTK, sequence (Q06187 whole entry): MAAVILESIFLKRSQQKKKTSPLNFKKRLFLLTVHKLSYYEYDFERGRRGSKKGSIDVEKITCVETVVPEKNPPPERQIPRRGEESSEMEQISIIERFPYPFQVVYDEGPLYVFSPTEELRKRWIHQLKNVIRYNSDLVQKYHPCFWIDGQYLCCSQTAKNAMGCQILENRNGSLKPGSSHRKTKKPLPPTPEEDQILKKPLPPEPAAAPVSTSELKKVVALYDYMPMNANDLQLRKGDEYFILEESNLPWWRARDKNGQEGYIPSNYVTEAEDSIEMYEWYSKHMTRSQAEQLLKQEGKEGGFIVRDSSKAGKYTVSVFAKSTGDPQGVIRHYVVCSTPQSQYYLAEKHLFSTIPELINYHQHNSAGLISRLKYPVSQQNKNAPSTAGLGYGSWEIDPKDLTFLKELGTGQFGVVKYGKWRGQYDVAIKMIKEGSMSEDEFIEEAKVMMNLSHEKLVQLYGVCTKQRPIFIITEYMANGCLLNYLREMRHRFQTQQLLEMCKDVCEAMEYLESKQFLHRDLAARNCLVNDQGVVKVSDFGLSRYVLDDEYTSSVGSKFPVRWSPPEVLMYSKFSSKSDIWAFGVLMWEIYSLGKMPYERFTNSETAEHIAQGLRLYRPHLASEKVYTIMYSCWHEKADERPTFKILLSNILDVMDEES
SLK/STK2, sequence (Q9H2G2 whole entry): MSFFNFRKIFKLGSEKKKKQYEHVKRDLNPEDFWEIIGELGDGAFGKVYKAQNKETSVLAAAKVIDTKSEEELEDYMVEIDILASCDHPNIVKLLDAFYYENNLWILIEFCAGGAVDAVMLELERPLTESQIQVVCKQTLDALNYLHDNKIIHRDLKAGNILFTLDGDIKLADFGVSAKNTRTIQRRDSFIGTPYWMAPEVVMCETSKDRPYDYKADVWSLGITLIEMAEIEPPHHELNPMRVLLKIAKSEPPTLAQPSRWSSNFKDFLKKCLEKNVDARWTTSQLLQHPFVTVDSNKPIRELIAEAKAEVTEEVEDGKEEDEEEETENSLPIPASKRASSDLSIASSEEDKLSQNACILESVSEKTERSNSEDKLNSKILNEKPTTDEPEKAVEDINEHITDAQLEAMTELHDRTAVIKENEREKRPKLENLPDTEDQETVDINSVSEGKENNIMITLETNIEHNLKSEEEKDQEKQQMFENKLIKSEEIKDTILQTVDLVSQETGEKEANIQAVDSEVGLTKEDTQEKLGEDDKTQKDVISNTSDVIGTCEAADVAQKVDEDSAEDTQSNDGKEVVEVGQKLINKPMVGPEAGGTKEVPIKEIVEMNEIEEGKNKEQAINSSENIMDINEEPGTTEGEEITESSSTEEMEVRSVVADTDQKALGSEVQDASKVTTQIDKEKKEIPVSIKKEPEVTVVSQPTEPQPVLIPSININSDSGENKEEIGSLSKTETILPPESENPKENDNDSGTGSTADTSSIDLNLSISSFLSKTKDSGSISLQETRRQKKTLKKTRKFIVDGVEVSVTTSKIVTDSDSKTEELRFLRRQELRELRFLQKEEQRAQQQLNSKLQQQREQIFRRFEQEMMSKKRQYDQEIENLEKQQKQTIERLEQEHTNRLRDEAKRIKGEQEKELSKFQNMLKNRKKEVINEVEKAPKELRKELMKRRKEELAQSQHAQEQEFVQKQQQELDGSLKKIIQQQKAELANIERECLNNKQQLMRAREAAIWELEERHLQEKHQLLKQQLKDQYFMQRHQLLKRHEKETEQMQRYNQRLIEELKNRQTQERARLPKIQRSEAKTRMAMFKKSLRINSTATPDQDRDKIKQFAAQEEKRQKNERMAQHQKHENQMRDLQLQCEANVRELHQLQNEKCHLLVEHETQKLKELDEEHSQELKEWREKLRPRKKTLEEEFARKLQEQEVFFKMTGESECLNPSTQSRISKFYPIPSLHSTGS
T3 sequence (Q9HCP0 whole entry): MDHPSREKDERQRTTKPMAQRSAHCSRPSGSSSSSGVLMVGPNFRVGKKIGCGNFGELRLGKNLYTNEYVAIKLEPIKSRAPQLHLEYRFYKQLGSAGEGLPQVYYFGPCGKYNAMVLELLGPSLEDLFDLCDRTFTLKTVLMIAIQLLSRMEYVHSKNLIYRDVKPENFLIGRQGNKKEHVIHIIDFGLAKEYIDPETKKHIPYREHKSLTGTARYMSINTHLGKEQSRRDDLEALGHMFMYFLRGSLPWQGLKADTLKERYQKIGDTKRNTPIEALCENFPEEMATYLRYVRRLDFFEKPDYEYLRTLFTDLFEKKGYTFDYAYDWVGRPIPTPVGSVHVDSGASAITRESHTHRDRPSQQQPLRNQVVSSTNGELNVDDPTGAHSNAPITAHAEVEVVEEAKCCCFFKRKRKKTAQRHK
SIK3, sequence (Q9Y2K2 whole entry): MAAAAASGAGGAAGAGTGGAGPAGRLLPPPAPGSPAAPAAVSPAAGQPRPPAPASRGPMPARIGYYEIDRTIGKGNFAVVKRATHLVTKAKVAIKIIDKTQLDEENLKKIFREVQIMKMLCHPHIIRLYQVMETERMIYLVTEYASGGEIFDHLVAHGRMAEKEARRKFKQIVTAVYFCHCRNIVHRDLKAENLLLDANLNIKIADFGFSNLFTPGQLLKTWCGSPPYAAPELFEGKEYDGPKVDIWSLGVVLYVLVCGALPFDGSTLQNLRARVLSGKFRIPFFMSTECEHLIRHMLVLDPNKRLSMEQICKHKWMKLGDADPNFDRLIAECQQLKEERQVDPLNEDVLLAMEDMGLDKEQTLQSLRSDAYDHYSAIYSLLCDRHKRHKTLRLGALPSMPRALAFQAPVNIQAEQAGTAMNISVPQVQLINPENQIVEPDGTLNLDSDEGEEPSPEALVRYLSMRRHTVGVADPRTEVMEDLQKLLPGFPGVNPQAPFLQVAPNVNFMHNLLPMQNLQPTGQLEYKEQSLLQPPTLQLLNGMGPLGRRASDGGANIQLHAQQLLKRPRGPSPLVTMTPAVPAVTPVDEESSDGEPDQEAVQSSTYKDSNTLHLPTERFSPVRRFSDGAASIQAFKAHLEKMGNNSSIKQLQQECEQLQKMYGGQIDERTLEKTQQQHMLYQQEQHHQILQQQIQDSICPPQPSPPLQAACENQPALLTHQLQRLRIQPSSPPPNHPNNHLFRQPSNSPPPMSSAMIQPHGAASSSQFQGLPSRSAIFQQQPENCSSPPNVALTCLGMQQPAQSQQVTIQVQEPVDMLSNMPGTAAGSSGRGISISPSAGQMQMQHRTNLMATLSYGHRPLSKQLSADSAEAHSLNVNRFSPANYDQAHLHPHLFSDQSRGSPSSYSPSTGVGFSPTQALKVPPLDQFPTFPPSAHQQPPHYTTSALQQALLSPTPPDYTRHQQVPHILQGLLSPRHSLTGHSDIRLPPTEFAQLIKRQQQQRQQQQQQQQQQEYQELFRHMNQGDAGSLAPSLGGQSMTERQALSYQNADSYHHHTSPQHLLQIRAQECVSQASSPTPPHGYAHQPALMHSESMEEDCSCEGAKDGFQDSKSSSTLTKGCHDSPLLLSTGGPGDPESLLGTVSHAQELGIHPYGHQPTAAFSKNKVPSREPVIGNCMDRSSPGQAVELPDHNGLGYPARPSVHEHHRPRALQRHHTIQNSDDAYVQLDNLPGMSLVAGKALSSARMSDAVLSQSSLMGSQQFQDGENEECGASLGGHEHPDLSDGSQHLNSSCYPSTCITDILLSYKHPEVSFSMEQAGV

SMILES: COc1cc(N2CCN(C)CC2)c(C)cc1Nc1ncc(Br)c(Nc2cccnc2N(C)C)n1 [TP-5801]
- remaining activity at 0.3 µM (TAOK2/TAO1; [1]): 86%
- remaining activity at 0.3 µM (TAOK2/TAO1; [2]): 84.4%
- remaining activity at 0.3 µM (PKAcb; [1]): 98%
- remaining activity at 0.3 µM (PKAcb; [2]): 96.7%
- remaining activity at 0.3 µM (ERK1; [1]): 108%
- remaining activity at 0.3 µM (ERK1; [2]): 107%
- remaining activity at 0.3 µM (SIK1; [1]): 94.2%
- remaining activity at 0.3 µM (SIK1; [2]): 92.8%
- remaining activity at 0.3 µM (BTK; [1]): 93.6%
- remaining activity at 0.3 µM (BTK; [2]): 92.1%
- remaining activity at 0.3 µM (CK1g1; [1]): 88.5%
- remaining activity at 0.3 µM (CK1g1; [2]): 87.8%
- remaining activity at 0.3 µM (BRSK1; [1]): 101%
- remaining activity at 0.3 µM (BRSK1; [2]): 95.8%
- remaining activity at 0.3 µM (SIK3; [1]): 96.1%
- remaining activity at 0.3 µM (SIK3; [2]): 93.9%
- remaining activity at 0.3 µM (PKA; [1]): 110%
- remaining activity at 0.3 µM (PKA; [2]): 108%
- remaining activity at 0.3 µM (ABL2/ARG; [1]): 93.2%
- remaining activity at 0.3 µM (ABL2/ARG; [2]): 91.6%
- remaining activity at 0.3 µM (PLK4/SAK; [1]): 74.8%
- remaining activity at 0.3 µM (PLK4/SAK; [2]): 72.8%
- remaining activity at 0.3 µM (GRK1; [1]): 118%
- remaining activity at 0.3 µM (GRK1; [2]): 109%
- remaining activity at 0.3 µM (FGR; [1]): 109%
- remaining activity at 0.3 µM (FGR; [2]): 105%
- remaining activity at 0.3 µM (TRKA; [1]): 93.3%
- remaining activity at 0.3 µM (TRKA; [2]): 82.4%
- remaining activity at 0.3 µM (LIMK1): 104%
- remaining activity at 0.3 µM (ERN2/IRE2; [1]): 52.8%
- remaining activity at 0.3 µM (ERN2/IRE2; [2]): 51.5%
- remaining activity at 0.3 µM (STK39/STLK3; [1]): 61.2%
- remaining activity at 0.3 µM (STK39/STLK3; [2]): 61.1%
- remaining activity at 0.3 µM (SLK/STK2; [1]): 55.6%
- remaining activity at 0.3 µM (SLK/STK2; [2]): 48.5%
- remaining activity at 0.3 µM (DMPK2): 109%
- remaining activity at 0.3 µM (AKT2; [1]): 100%
- remaining activity at 0.3 µM (AKT2; [2]): 99.9%

From publication PMC8429728, “TNK1 is a ubiquitin-binding and 14-3-3-regulated kinase that can be targeted to block tumor growth” (Nature Communications, 2021)
